# pIC50: −log10 of the molar value.
# Legend:
# L1210 [1] = test: Cytotoxicity against mouse L1210 cells at 64 ug/disk by disk diffusion soft agar colony formation assay; assay type: functional
# MC-38 [2] = test: Cytotoxicity against mouse C38 cells at 64 ug/disk by disk diffusion soft agar colony formation assay; assay type: functional
# [3] = Cytotoxicity against human H116 cells at 64 ug/disk by disk diffusion soft agar colony formation assay; assay type: functional
# [4] = Cytotoxicity against human H125 cells at 64 ug/disk by disk diffusion soft agar colony formation assay; assay type: functional
# A549 = test: Antitumor activity against human A549/ATCC cells; assay type: functional, cell-based
# EKVX = test: Antitumor activity against human EKVX cells; assay type: functional, cell-based
# HOP-62 = test: Antitumor activity against human HOP62 cells; assay type: functional, cell-based
# HOP-92 = test: Antitumor activity against human HOP92 cells; assay type: functional, cell-based
# NCI-H226 = test: Antitumor activity against human NCI-H226 cells; assay type: functional, cell-based
# NCI-H23 = test: Antitumor activity against human NCI-H23 cells; assay type: functional, cell-based
# NCI-H322M = test: Antitumor activity against human NCI-H322M cells; assay type: functional, cell-based
# NCI-H460 = test: Antitumor activity against human NCI-H460 cells; assay type: functional, cell-based
# NCI-H522 = test: Antitumor activity against human NCI-H522 cells; assay type: functional, cell-based
# COLO 205 = test: Antitumor activity against human COLO205 cells; assay type: functional, cell-based
# HCC 2998 = test: Antitumor activity against human HCC2998 cells; assay type: functional, cell-based
# HCT-116 = test: Antitumor activity against human HCT116 cells; assay type: functional, cell-based
# HCT-15 = test: Antitumor activity against human HCT15 cells; assay type: functional, cell-based
# KM12 = test: Antitumor activity against human KM12 cells; assay type: functional, cell-based
# SW-620 = test: Antitumor activity against human SW620 cells; assay type: functional, cell-based
# SF-268 = test: Antitumor activity against human SF268 cells; assay type: functional, cell-based
# SF-295 = test: Antitumor activity against human SF295 cells; assay type: functional, cell-based
# SNB-19 = test: Antitumor activity against human SNB19 cells; assay type: functional, cell-based
# SNB-75 = test: Antitumor activity against human SNB75 cells; assay type: functional, cell-based
# U-251 = test: Antitumor activity against human U251 cells; assay type: functional, cell-based
# LOX IMVI = test: Antitumor activity against human LOXIMVI cells; assay type: functional, cell-based
# Malme-3M = test: Antitumor activity against human MALME-3M cells; assay type: functional, cell-based
# M14 = test: Antitumor activity against human M14 cells; assay type: functional, cell-based
# SK-MEL-28 = test: Antitumor activity against human SK-MEL-28 cells; assay type: functional, cell-based
# SK-MEL-5 = test: Antitumor activity against human SK-MEL-5 cells; assay type: functional, cell-based
# UACC-257 = test: Antitumor activity against human UACC257 cells; assay type: functional, cell-based
# UACC-62 = test: Antitumor activity against human UACC62 cells; assay type: functional, cell-based
# IGROV-1 = test: Antitumor activity against human IGROV1 cells; assay type: functional, cell-based
# OVCAR-3 = test: Antitumor activity against human OVCAR-3 cells; assay type: functional, cell-based
# OVCAR-4 = test: Antitumor activity against human OVCAR4 cells; assay type: functional, cell-based
# OVCAR-5 = test: Antitumor activity against human OVCAR5 cells; assay type: functional, cell-based
# OVCAR-8 = test: Antitumor activity against human OVCAR8 cells; assay type: functional, cell-based
# SK-OV-3 = test: Antitumor activity against human SKOV3 cells; assay type: functional, cell-based
# [5] = Antitumor activity against human 786-O cells; assay type: functional, cell-based; conditions: 786-0
# A498 = test: Antitumor activity against human A498 cells; assay type: functional, cell-based
# ACHN = test: Antitumor activity against human ACHN cells; assay type: functional, cell-based
# CAKI-1 = test: Antitumor activity against human Caki1 cells; assay type: functional, cell-based
# RXF 393 = test: Antitumor activity against human RXF393 cells; assay type: functional, cell-based
# SN12C = test: Antitumor activity against human SN12C cells; assay type: functional, cell-based
# TK-10 = test: Antitumor activity against human TK10 cells; assay type: functional, cell-based
# UO-31 = test: Antitumor activity against human UO31 cells; assay type: functional, cell-based
# PC-3 = test: Antitumor activity against human PC3 cells; assay type: functional, cell-based
# MCF7 [6] = test: Antitumor activity against human MCF7 cells; assay type: functional, cell-based
# MCF7 [7] = test: Antitumor activity against […] human MCF7 cells; assay type: functional, cell-based
# [8] = Antitumor activity against human Hs 578T cells; assay type: functional, cell-based
# MDA-MB-435 = test: Antitumor activity against human MDA-MB-435 cells; assay type: functional, cell-based
# BT-549 = test: Antitumor activity against human BT549 cells; assay type: functional, cell-based
# T47D = test: Antitumor activity against human T47D cells; assay type: functional, cell-based
# L1210 [9] = test: Cytotoxicity against mouse L1210 cells 6.4 ug/disk by disk diffusion soft agar colony formation assay; assay type: functional
# MC-38 [10] = test: Cytotoxicity against mouse C38 cells at 6.4 ug/disk by disk diffusion soft agar colony formation assay; assay type: functional
# [11] = Cytotoxicity against mouse CFU-GM cells at 6.4 ug/disk by disk diffusion soft agar colony formation assay; assay type: cell-based
# [12] = Cytotoxicity against human H116 cells at 6.4 ug/disk by disk diffusion soft agar colony formation assay; assay type: functional
# [13] = Cytotoxicity against human H125 cells at 6.4 ug/disk by disk diffusion soft agar colony formation assay; assay type: functional
# CCRF-CEM [14] = test: Cytotoxicity against human CEM cells at 6.4 ug/disk by disk diffusion soft agar colony formation assay; assay type: functional
# HL-60(TB) = test: Antitumor activity against human HL-60(TB) cells; assay type: functional, cell-based
# K562 = test: Antitumor activity against human K562 cells; assay type: functional, cell-based
# MOLT-4 = test: Antitumor activity against human MOLT4 cells; assay type: functional, cell-based
# RPMI-8226 = test: Antitumor activity against human RPMI8226 cells; assay type: functional, cell-based
# SR = test: Antitumor activity against human SR cells; assay type: functional, cell-based
# L1210 [15] = test: Cytotoxicity against mouse L1210 cells at 3.4 ug/disk by disk diffusion soft agar colony formation assay; assay type: functional
# MC-38 [16] = test: Cytotoxicity against mouse C38 cells at 3.4 ug/disk by disk diffusion soft agar colony formation assay; assay type: functional
# [17] = Cytotoxicity against mouse CFU-GM cells at 3.4 ug/disk by disk diffusion soft agar colony formation assay; assay type: cell-based
# [18] = Cytotoxicity against human H116 cells at 3.4 ug/disk by disk diffusion soft agar colony formation assay; assay type: functional
# [19] = Cytotoxicity against human H125 cells at 3.4 ug/disk by disk diffusion soft agar colony formation assay; assay type: functional
# CCRF-CEM [20] = test: Cytotoxicity against human CEM cells at 3.4 ug/disk by disk diffusion soft agar colony formation assay; assay type: functional
# [21] = Cytotoxicity against human H116 cells at 0.8 ug/disk by disk diffusion soft agar colony formation assay; assay type: functional
# [22] = Cytotoxicity against human H125 cells at 0.8 ug/disk by disk diffusion soft agar colony formation assay; assay type: functional
# CCRF-CEM [23] = test: Cytotoxicity against human CEM cells at 0.8 ug/disk by disk diffusion soft agar colony formation assay; assay type: functional
# L1210 [24] = test: Cytotoxicity against mouse L1210 cells at 200 ug/dusk by disk diffusion soft agar colony formation assay; assay type: functional
# MC-38 [25] = test: Cytotoxicity against mouse C38 cells at 200 ug/disk by disk diffusion soft agar colony formation assay; assay type: functional
# [26] = Cytotoxicity against mouse CFU-GM cells at 200 ug/disk by disk diffusion soft agar colony formation assay; assay type: cell-based
# [27] = Cytotoxicity against human H116 cells at 200 ug/disk by disk diffusion soft agar colony formation assay; assay type: functional
# L1210 [28] = test: Cytotoxicity against mouse L1210 cells at 84 ug/disk by disk diffusion soft agar colony formation assay; assay type: functional
# MC-38 [29] = test: Cytotoxicity against mouse C38 cells at 84 ug/disk by disk diffusion soft agar colony formation assay; assay type: functional
# [30] = Cytotoxicity against mouse CFU-GM cells at 84 ug/disk by disk diffusion soft agar colony formation assay; assay type: cell-based
# [31] = Cytotoxicity against human H116 cells at 84 ug/disk by disk diffusion soft agar colony formation assay; assay type: functional
# [32] = Cytotoxicity against human H125 cells at 84 ug/disk by disk diffusion soft agar colony formation assay; assay type: functional
# CCRF-CEM [33] = test: Cytotoxicity against human CEM cells at 84 ug/disk by disk diffusion soft agar colony formation assay; assay type: functional
compound,measurement,setting,value
O=C(O)c1ccc(Br)cc1-[n+]1ccc2c(c1)[nH]c1ccccc12.[Cl-],Activity,L1210 [1],100 Zone units
same,Activity,MC-38 [2],250 Zone units
same,Activity,[3],0 Zone units
same,Activity,[4],0 Zone units
O=C1c2ccc(Br)cc2-[n+]2ccc3c([nH]c4ccccc43)c21.[Cl-],pIC50,A549,< 5.00
same,pIC50,EKVX,5.44
same,pIC50,HOP-62,< 5.00
same,pIC50,HOP-92,< 5.00
same,pIC50,NCI-H226,5.28
same,pIC50,NCI-H23,6.05
same,pIC50,NCI-H322M,6.19
same,pIC50,NCI-H460,< 5.00
same,pIC50,NCI-H522,6.17
same,pIC50,COLO 205,< 5.00
same,pIC50,HCC 2998,6.04
same,pIC50,HCT-116,6.12
same,pIC50,HCT-15,< 5.00
same,pIC50,KM12,5.07
same,pIC50,SW-620,< 5.00
same,pIC50,SF-268,5.25
same,pIC50,SF-295,6.23
same,pIC50,SNB-19,6.18
same,pIC50,SNB-75,5.42
same,pIC50,U-251,< 5.00
same,pIC50,LOX IMVI,< 5.00
same,pIC50,Malme-3M,6.31
same,pIC50,M14,6.23
same,pIC50,SK-MEL-28,5.89
same,pIC50,SK-MEL-5,< 5.00
same,pIC50,UACC-257,5.28
same,pIC50,UACC-62,6.20
same,pIC50,IGROV-1,6.13
same,pIC50,OVCAR-3,5.36
same,pIC50,OVCAR-4,6.23
same,pIC50,OVCAR-5,< 5.00
same,pIC50,OVCAR-8,6.22
same,pIC50,SK-OV-3,< 5.00
same,pIC50,[5],5.15
same,pIC50,A498,< 5.00
same,pIC50,ACHN,< 5.00
same,pIC50,CAKI-1,5.80
same,pIC50,RXF 393,5.51
same,pIC50,SN12C,5.54
same,pIC50,TK-10,< 5.00
same,pIC50,UO-31,6.28
same,pIC50,PC-3,< 5.00
same,pIC50,MCF7 [6],6.03
same,pIC50,MCF7 [7],5.28
same,pIC50,[8],6.23
same,pIC50,MDA-MB-435,< 5.00
same,pIC50,BT-549,6.23
same,pIC50,T47D,< 5.00
same,Activity,L1210 [9],500 Zone units
same,Activity,MC-38 [10],400 Zone units
same,Activity,[11],400 Zone units
same,Activity,[12],600 Zone units
same,Activity,[13],550 Zone units
same,Activity,CCRF-CEM [14],400 Zone units
same,pIC50,HL-60(TB),< 5.00
same,pIC50,K562,< 5.00
same,pIC50,MOLT-4,< 5.00
same,pIC50,RPMI-8226,< 5.00
same,pIC50,SR,< 5.00
O=C1c2ccccc2-[n+]2ccc3c([nH]c4cc(Br)ccc43)c21.[Cl-],Activity,L1210 [15],550 Zone units
same,Activity,MC-38 [16],450 Zone units
same,Activity,[17],350 Zone units
same,Activity,[18],600 Zone units
same,Activity,[19],750 Zone units
same,Activity,CCRF-CEM [20],400 Zone units
same,Activity,[21],400 Zone units
same,Activity,[22],500 Zone units
same,Activity,CCRF-CEM [23],200 Zone units
COC(=O)c1ccc(Br)cc1-[n+]1ccc2c(c1)[nH]c1ccccc12.[Cl-],Activity,L1210 [24],350 Zone units
same,Activity,MC-38 [25],400 Zone units
same,Activity,[26],250 Zone units
same,Activity,[27],200 Zone units
Oc1ccc(Br)cc1-[n+]1ccc2c(c1)[nH]c1ccccc12.[Cl-],Activity,L1210 [28],450 Zone units
same,Activity,MC-38 [29],400 Zone units
same,Activity,[30],450 Zone units
same,Activity,[31],500 Zone units
same,Activity,[32],550 Zone units
same,Activity,CCRF-CEM [33],750 Zone units

# Source: ChEMBL document CHEMBL1151200, “Comparison of fascaplysin and related alkaloids: a study of structures, cytotoxicities, and sources” (J Nat Prod, 2004)
